What was measured:
hERG (Kv11.1) [1] = target: T1, hERG (Kv11.1) (Homo sapiens, UniProt Q12809); test: whole-cell patch clamp of I Kr tail current in hiPSC-CMs; assay type: cell-based
T1 construct: gene KCNH2

hERG (Kv11.1) [2] = target: T1, hERG (Kv11.1); test: whole-cell patch clamp: hERG-HEK293 cells ([…]) and I Kr in hiPSC-CMs (IC50); assay type: cell-based

T1 sequence (Q12809 whole entry): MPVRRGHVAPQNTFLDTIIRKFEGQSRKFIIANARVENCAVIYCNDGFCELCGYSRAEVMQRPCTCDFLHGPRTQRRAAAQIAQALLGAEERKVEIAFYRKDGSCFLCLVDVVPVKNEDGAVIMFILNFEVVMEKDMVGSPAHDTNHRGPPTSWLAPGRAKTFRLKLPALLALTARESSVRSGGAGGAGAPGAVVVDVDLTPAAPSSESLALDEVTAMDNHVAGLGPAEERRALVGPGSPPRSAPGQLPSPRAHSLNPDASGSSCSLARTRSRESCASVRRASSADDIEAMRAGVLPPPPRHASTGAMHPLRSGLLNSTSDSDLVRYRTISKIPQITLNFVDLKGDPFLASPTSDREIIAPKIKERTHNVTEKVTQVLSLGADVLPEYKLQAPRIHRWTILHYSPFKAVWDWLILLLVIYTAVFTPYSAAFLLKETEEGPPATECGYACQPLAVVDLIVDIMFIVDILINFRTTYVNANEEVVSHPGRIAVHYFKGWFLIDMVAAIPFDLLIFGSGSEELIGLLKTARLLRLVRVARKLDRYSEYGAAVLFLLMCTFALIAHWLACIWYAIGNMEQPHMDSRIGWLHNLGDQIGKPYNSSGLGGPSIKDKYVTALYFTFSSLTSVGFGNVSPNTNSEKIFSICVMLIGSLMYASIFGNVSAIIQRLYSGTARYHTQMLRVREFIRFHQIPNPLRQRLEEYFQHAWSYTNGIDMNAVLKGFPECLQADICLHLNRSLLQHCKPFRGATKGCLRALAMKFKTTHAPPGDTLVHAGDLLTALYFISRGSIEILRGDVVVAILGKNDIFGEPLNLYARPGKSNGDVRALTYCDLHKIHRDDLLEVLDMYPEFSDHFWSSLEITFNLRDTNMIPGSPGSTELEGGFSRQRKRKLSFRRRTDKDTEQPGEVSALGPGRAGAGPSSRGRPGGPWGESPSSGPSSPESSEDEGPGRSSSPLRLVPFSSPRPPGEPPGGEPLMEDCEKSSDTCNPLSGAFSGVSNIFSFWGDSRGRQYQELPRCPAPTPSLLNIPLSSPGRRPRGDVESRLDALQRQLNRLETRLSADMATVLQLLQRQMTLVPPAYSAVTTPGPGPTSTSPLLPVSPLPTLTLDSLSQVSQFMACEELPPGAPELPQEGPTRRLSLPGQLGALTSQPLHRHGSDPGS

Compound | IC50 (hERG (Kv11.1) [1]) [nM] | IC50 (hERG (Kv11.1) [2]) [nM]
C=C[C@H]1CN2CCc3c([nH]c4cccc(OC)c34)[C@@H]2C[C@@H]1/C(=C\OC)C(=O)OC [Paynantheine] | 2470 | 
CC[C@H]1CN2CCc3c([nH]c4cccc(OC)c34)[C@@H]2C[C@@H]1/C(=C\OC)C(=O)OC [Speciogynine] | 1020 | 
CC[C@@H]1CN2CCc3c([nH]c4cccc(OC)c34)[C@@H]2C[C@@H]1/C(=C\OC)C(=O)OC [Mitragynine] |  | 910
CC[C@@H]1CN2CCc3c([nH]c4cccc(OC)c34)[C@H]2C[C@@H]1/C(=C\OC)C(=O)OC [Speciociliatine] | 1480 | 

Reference: paper PMC4275233, “Evaluation of the Cardiotoxicity of Mitragynine and Its Analogues Using Human Induced Pluripotent Stem Cell-Derived Cardiomyocytes” (PLoS ONE, 2014)
